Data taken from PMC5509998, “Autotaxin–lysophosphatidic acid–LPA 3 signaling at the embryo‐epithelial boundary controls decidualization pathways” (The EMBO Journal, 2017).

Biological target: T1, autotaxin (ATX, ENPP2) (Mus musculus, UniProt Q9R1E6)
T1 construct: recombinant ATX; mouse ENPP proteins expressed in HEK293A cells (culture supernatants)
Assay: colorimetric phosphodiesterase assay with p-nitrophenyl TMP as substrate
Type: biochemical

IC50: ~38 nM
SMILES: CCCCCn1c(-c2ccc(C(=O)NCCN3CCOCC3)cc2)cc(=O)n2cc(-c3ccc(Cl)cc3)nc12 [S15-00826]
